Data on one compound can be found in ChEMBL document CHEMBL5550160, “Leveraging a rationally designed veliparib-based anilide eliciting anti-leukemic effects for the design of pH-responsive polymer nanoformulation” (Eur J Med Chem, 2024).

SMILES strings stand for the structures. Calls of active or inactive are those of the source. No cut-off for these calls is given here.

Test [1] concerns HL-60. Briefly: Induction of apoptosis in human HL-60 cells assessed as DNA fragmentation at 0.5 to 1 times IC50 by DAPI staining based microscopic analysis. In kind it is functional, cell-based.
In test [2] the target is T1, Histone deacetylase 3 (Homo sapiens, UniProt O15379). The experiment in a line: Inhibition of HDAC3 (unknown origin) using p53 residues 379 to 382 [RHKK(Ac)] as fluorogenic substrate assessed as residual activity at 1.11 x 10^-6M (reference value: 103.08%). The following applies: dose 1.1 10^-6M.
T1 sequence (O15379 whole entry, the tested form may be a part): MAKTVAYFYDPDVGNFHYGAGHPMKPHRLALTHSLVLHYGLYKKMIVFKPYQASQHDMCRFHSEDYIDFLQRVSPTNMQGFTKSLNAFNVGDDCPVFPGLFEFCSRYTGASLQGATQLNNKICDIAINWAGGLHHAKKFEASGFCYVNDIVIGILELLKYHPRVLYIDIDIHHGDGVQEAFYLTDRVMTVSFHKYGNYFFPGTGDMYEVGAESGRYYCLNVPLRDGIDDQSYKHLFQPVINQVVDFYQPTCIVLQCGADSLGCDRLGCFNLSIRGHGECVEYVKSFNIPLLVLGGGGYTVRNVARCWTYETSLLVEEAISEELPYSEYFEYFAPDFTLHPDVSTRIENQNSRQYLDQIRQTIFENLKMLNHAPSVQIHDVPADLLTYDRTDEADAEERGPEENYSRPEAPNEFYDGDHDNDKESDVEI
Test [3] has as its target T2, Histone deacetylase 7 (Homo sapiens) (UniProt Q8WUI4).
T2 sequence (whole entry): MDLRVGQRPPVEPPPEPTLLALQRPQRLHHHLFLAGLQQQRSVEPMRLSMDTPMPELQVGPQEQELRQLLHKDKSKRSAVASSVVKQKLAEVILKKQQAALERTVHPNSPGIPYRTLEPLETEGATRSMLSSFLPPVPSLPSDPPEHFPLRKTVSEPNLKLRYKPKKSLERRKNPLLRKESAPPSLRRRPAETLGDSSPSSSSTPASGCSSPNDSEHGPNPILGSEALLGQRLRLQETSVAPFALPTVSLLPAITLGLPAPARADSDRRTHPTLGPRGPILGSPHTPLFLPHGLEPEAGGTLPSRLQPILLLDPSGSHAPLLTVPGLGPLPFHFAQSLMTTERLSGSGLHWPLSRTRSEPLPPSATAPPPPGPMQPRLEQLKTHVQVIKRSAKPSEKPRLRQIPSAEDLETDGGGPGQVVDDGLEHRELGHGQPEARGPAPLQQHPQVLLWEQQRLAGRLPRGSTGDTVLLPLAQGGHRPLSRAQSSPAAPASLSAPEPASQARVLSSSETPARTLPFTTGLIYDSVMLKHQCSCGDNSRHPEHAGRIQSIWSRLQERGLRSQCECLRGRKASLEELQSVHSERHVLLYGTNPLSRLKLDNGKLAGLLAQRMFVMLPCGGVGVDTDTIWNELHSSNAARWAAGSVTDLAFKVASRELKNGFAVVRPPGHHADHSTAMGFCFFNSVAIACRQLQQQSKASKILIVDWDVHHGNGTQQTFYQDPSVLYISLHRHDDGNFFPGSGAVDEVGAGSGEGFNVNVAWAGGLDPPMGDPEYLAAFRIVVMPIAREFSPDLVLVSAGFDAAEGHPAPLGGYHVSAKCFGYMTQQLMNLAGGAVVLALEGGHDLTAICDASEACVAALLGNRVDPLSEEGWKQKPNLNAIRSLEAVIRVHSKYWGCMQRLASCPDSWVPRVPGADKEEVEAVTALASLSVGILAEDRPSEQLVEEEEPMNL
The experiment in a line: Inhibition of HDAC7 (unknown origin) assessed as residual activity at 3.70 x 10^-7M (reference value: 102.66%). The conditions noted are these: dose 3.7 10^-7M.

In test [4] the target is T3, Histone deacetylase 8 (Homo sapiens) (UniProt Q9BY41).
T3 sequence (whole entry): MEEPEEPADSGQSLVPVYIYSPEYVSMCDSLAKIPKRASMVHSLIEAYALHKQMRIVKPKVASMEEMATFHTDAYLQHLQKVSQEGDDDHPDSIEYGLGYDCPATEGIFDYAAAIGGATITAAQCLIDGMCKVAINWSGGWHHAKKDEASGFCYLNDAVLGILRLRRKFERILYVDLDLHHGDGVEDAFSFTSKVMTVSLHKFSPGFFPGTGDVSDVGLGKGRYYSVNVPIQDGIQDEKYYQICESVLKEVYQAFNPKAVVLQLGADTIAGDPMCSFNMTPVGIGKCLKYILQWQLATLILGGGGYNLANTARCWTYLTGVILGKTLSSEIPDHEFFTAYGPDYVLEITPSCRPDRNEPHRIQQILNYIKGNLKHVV
The experiment in a line: Inhibition of HDAC8 (unknown origin) assessed as residual activity at 4.57 x 10^-9M (reference value: 100%). The conditions noted are these: dose 4.57 10^-9M.

Test [5] concerns the target T1, Histone deacetylase 3. The experiment in a line: Inhibition of HDAC3 (unknown origin) using p53 residues 379 to 382 [RHKK(Ac)] as fluorogenic substrate assessed as residual activity at 3.70 x 10^-7M (reference value: 103.08%). The conditions noted are these: dose 3.7 10^-7M.
Test [6] relates to HL-60. Briefly: Induction of apoptosis in human HL-60 cells assessed as nuclear fragmentation at 0.5 to 1 times IC50 by DAPI staining based microscopic analysis. The format is functional, cell-based.
For test [7], the target named is T3, Histone deacetylase 8 (Homo sapiens). The experiment in a line: Inhibition of HDAC8 (unknown origin) assessed as residual activity at 1.37 x 10^-8M (reference value: 100%). The conditions noted are these: dose 1.37 10^-8M.
Test [8] has as its target Histone deacetylase 4 (Homo sapiens) (UniProt P56524). The experiment in a line: Inhibition of HDAC4 (unknown origin) assessed as residual activity at 1.37 x 10^-8M (reference value: 98.90%). The conditions noted are these: dose 1.37 10^-8M.
Test [9] addresses T4, Histone deacetylase 2 (Homo sapiens, UniProt Q92769). Briefly: Inhibition of HDAC2 (unknown origin) assessed as residual activity at 5.08 x 10^-10M (reference value: 99.81%). The conditions noted are these: dose 5.08 10^-10M.
Test [10] has as its target T4, Histone deacetylase 2. Briefly: Inhibition of HDAC2 (unknown origin) assessed as residual activity at 1.1 x 10^-6M (reference value: 99.81%). The following applies: dose 1.1 10^-6M.
In test [11] the target is T5, Polyamine deacetylase HDAC10 (Homo sapiens) (UniProt Q969S8).
T5 sequence (whole entry): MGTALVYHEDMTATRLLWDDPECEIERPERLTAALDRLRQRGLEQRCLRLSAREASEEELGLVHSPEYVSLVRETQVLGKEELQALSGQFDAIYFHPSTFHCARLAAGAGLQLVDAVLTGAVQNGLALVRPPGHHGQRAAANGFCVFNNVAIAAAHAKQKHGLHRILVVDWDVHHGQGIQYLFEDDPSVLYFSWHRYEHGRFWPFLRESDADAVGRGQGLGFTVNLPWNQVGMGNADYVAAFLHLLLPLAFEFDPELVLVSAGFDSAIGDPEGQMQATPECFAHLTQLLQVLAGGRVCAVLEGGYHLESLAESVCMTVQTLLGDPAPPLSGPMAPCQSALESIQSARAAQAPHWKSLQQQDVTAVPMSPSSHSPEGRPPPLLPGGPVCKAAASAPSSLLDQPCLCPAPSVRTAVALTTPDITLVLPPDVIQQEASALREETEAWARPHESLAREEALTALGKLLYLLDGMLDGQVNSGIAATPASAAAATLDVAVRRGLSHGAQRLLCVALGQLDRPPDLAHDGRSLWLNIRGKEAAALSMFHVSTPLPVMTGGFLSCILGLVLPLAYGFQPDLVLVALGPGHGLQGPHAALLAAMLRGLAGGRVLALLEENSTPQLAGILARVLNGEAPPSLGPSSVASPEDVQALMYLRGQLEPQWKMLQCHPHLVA
The experiment in a line: Inhibition of HDAC10 (unknown origin) assessed as residual activity at 4.57 x 10^-9M (reference value: 101.54%). The following applies: dose 4.57 10^-9M.

In test [12] the test system is HL-60. The experiment in a line: Downregulation of HDAC1 protein expression in human HL-60 cells at 0.5 to 1 times IC50 by Western blot analysis. In kind it is functional, cell-based.
Test [13] concerns the target T2, Histone deacetylase 7 (Homo sapiens). Briefly: Inhibition of HDAC7 (unknown origin) assessed as residual activity at 4.12 x 10^-8M (reference value: 102.66%). The conditions noted are these: dose 4.12 10^-8M.

T4 sequence (Q92769 whole entry): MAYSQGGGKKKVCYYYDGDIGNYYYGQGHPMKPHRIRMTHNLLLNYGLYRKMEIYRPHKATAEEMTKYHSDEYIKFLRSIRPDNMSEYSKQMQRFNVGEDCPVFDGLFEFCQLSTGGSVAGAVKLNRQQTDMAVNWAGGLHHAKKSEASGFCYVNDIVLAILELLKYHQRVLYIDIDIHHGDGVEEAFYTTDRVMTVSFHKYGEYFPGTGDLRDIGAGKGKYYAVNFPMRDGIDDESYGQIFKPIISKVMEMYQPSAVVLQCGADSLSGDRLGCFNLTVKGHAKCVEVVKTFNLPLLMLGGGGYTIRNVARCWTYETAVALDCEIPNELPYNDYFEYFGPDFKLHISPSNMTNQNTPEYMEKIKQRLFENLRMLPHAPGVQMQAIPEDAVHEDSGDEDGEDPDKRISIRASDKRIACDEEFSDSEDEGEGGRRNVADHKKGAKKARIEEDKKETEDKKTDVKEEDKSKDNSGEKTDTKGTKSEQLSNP
Histone deacetylase 4 (Homo sapiens), sequence (P56524 whole entry): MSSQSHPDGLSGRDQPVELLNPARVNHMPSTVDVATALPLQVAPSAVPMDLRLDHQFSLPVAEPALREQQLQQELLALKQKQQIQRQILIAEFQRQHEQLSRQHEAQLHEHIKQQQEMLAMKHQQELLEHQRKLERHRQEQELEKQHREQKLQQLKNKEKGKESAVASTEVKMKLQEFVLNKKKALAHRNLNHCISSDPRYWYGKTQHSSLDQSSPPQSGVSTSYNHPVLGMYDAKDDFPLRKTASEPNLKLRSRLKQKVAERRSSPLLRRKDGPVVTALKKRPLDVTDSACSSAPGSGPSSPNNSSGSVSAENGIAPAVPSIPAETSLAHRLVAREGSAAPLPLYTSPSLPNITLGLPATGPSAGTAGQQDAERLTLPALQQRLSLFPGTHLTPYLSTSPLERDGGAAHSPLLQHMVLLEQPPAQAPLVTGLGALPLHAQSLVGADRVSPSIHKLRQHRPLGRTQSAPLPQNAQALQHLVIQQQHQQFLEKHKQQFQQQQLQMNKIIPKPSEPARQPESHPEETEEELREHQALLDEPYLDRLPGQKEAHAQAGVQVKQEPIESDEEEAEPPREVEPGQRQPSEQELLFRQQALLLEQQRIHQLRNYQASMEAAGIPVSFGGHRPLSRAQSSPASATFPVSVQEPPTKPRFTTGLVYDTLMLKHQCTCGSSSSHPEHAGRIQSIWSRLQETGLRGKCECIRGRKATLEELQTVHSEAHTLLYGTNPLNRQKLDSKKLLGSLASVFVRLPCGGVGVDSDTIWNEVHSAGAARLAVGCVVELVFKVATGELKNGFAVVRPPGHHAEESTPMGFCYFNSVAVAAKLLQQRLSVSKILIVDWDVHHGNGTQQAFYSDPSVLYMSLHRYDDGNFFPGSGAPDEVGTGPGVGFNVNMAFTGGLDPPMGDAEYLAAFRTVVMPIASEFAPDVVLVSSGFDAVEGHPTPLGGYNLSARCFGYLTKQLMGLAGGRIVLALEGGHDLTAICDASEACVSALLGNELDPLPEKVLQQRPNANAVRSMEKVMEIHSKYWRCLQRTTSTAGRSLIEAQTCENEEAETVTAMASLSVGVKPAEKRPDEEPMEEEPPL

As for `NC(=O)c1cccc2[nH]c(-c3ccc(NCc4ccc(C(=O)Nc5ccccc5N)cc4)cc3)nc12`, the result with HL-60 [1] and in the test with HL-60 [6] was inactive. The Activity came out at 21.7% at Histone deacetylase 3 [2]; 91.9% in test [3]; 103% in [4]; 54.9% at Histone deacetylase 3 [5]; 104% in [7]; 96.3% in test [8]. In addition, the Activity worked out at 98.2% on Histone deacetylase 2 [9], 12.8% at Histone deacetylase 2 [10], 98.8% in test [11] and 87% in [13]. Further, in the test with HL-60 [12], the outcome was Active.
